Consider 18 molecules from US11976083B2, “Inhibitors of peptidylarginine deiminases” (Gilead Sciences, Inc., priority 2020, dated 2024).

Each structure is given as a SMILES string.

T1 sequence (Q9UM07 2-663): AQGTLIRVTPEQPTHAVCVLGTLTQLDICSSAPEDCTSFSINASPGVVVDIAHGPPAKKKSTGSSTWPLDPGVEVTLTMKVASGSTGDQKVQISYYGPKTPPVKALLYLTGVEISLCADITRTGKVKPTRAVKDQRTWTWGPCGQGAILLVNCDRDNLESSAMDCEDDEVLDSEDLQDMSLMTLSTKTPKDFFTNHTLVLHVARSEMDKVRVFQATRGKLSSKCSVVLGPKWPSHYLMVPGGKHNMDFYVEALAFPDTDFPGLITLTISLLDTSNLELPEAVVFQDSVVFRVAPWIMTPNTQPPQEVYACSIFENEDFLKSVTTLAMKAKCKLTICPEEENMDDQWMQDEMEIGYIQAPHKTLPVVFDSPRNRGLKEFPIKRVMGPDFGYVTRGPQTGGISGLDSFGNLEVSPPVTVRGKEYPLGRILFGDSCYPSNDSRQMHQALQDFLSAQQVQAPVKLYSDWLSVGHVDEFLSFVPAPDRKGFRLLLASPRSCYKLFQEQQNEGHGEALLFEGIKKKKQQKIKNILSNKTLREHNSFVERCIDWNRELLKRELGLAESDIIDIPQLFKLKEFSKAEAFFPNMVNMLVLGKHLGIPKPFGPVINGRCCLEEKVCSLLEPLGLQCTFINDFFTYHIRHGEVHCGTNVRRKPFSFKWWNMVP

The assay concerns the target T1, human PAD4 (Homo sapiens, UniProt Q9UM07).
T1 construct: human PAD4 (NM_012387), A2-P663, was PCR amplified; His-SUMO (N, cleaved yes); made in house; host or cells: E. coli BL21(DE3)
The assay is described as follows: In vitro PAD4 BAEE biochemical assay. As to conditions: BAEE substrate 3 mM, 5 nM PAD4, 2 mM calcium chloride; geometric mean of multiple experiments. A digest of the protocol:
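Fluorescence read-out (ex 405/em 535 nm) of isoindole formed from ammonia, o-phthalaldehyde and DTT after EDTA stop. Reaction: 5 nM PAD4, 2 mM CaCl2, 3 mM BAEE, 2 h, 25 °C, after 30 min enzyme–compound preincubation. Normalised to BB-Cl-Amidine (50 µM) and DMSO controls.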
In the case of `C[C@H]1NC(=O)C(C)(C)CCCCCCn2c(-c3nc4cc(C(=O)N[C@H]5CNCC[C@@H]5F)c(F)cc4n3C)cc3ccc1nc32` [Example 591, 6-fluoro-~{N}-[(3~{S},4~ {S})-4-fluoro-3-piperidyl]-1-methyl-2-[(11~ {R})-8,8,11-trimethyl-9-oxo-1,10,19-triazatricyclo [10.5.2.0^{15,18}]nonadeca-12,14,16,18-tetraen-17-yl]benzimidazole-5-carboxamide], the concentration for half-maximal inhibition (IC50) (as a rule, the concentration that gives 50% inhibition) was found to be 81 nM.

In the case of `COc1cc2c(cc1C(=O)N[C@H]1CNCC[C@@H]1F)nc(-c1cc3ccc4nc3n1CCCCCCC(C)(C)C(=O)N[C@@H]4C)n2C` [Example 592, ~{N}-[(3~{S},4~{S})-4-fluoro-3-piperidyl]-6-methoxy-1-methyl-2-[(11~{R})-8,8,11-trimethyl-9-oxo-1,10,19-triazatricyclo[10.5.2.0^ {15,18}]nonadeca-12,14,16,18-tetraen-17-yl]benzimidazole-5-carboxamide], the half-inhibitory concentration (IC50) came out at 175 nM.

Regarding `C[C@H]1NC(=O)c2ccccc2CCCCCn2c(-c3nc4cc(C(=O)N[C@H]5CNCC[C@@H]5F)c(F)cc4n3C)cc3ccc1nc32` [Example 593, 6-fluoro-~{N}-[(3~{S},4~ {S})-4-fluoro-3-piperidyl]-1-methyl-2-[(2~{R})-2-methyl-4-oxo-3,16,22-triazatetracyclo[14.5.2.0^ {5,10}.0^{19,23}]tricosa-1(21),5(10),6,8,17, 19,22-heptaen-17-yl] benzimidazole-5-carboxamide], the IC50 is 44 nM.

As for `COc1cc(C(=O)N[C@H]2CNCC[C@@H]2F)cc2nc(-c3cc4ccc5nc4n3CC(F)(F)CCCCC(C)(C)C(=O)N[C@@H]5C)n(C)c12` [Example 594, 2-[(11~{R})-3,3-difluoro-8,8,11-trimethyl-9-oxo-1,10,19-triazatricyclo [10.5.2.0^{15,18}]nonadeca-12,14,16,18-tetraen-17-yl]-~ {N}-[(3~{S},4~{S})-4-fluoro-3-piperidyl]-7-methoxy-1-methyl-benzimidazole-5-carboxamide], the half-inhibitory concentration (IC50) came out at 112 nM.

With `C[C@H]1NC(=O)[C@@H]2C[C@H]2CCCC(F)(F)Cn2c(-c3nc4cc(C(=O)N[C@H]5CNCC[C@@H]5F)c(F)cc4n3C)cc3ccc1nc32` [Example 595, 2-[(2~{R},5~{R},7~ {R})-11,11-difluoro-2-methyl-4-oxo-3,13,19-triazatetracyclo[11.5.2.0^ {5,7}.0^{16,20}]icosa-1(19),14,16(20),17-tetraen-14-yl]-6-fluoro-~ {N}-[(3~{S},4~{S})-4-fluoro-3-piperidyl]-1-methyl-benzimidazole-5-carboxamide], the IC50 was found to be 37 nM.

Regarding `C[C@H]1NC(=O)C(C)(C)CCCCCCn2c(-c3nc4cc(C(=O)N[C@H]5CNCC[C@@H]5F)c(C#N)cc4n3C)cc3ccc1nc32` [Example 596, 6-cyano-~{N}-[(3~{S},4~ {S})-4-fluoro-3-piperidyl]-1-methyl-2-[(11~{R})-8,8,11-trimethyl-9-oxo-1,10,19-triazatricyclo[10.5.2.0^ {15,18}]nonadeca-12,14,16,18-tetraen-17-yl] benzimidazole-5-carboxamide], the IC50 is 3580 nM.

`C[C@H]1NC(=O)c2ccccc2CCCC(F)(F)Cn2c(-c3nc4cc(C(=O)N[C@H]5CNCC[C@@H]5F)c(F)cc4n3C)cc3ccc1nc32` [Example 597, 2-[(2~{R})-14,14-difluoro-2-methyl-4-oxo-3,16,22-triazatetracyclo[14.5.2.0^ {5,10}.0^{19,23}]tricosa-1(21),5(10),6,8,17,19,22-heptaen-17-yl]-6-fluoro-~ {N}-[(3~{S},4~{S})-4-fluoro-3-piperidyl]-1-methyl-benzimidazole-5-carboxamide]: the half-maximal inhibitory concentration (IC50) is 42 nM.

Regarding `COc1cc(C(=O)N2[C@H]3CC[C@@H]2[C@H](N)C3)cc2nc(-c3cc4ccc5nc4n3CCCCCc3nccnc3C(=O)N[C@@H]5C)n(C)c12` [Example 598, (2~{R})-17-[5-[(1~{R}, 2~{R},4~{S})-2-amino-7-azabicyclo[2.2.1]heptane-7-carbonyl]-7-methoxy-1-methyl-benzimidazol-2-yl]-2-methyl-3,6,9,16,22-pentazatetracyclo[14.5.2.0^ {5,10}.0^{19,23}] tricosa-1(21),5(10),6,8,17, 19,22-heptaen-4-one], the IC50 came to 42 nM.

For the molecule `C[C@H]1NC(=O)[C@@H]2C[C@H]2CCCCCn2c(-c3nc4cc(C(=O)N[C@H]5CNCC[C@@H]5F)c(F)cc4n3CCOC(F)(F)F)cc3ccc1nc32` [Example 599, 6-fluoro-~{N}-[(3~{S},4~{S})-4-fluoro-3-piperidyl]-2-[(2~{R}, 5~{R},7~{R})-2-methyl-4-oxo-3,13,19-triazatetracyclo[11.5.2.0^ {5,7}.0^{16,20}]icosa-1(19),14,16(20),17-tetraen-14-yl]-1-[2-(trifluoromethoxy)ethyl]benzimidazole-5-carboxamide], the IC50 is 67 nM.

Regarding `C[C@H]1NC(=O)[C@@H]2C[C@H]2CCCCCn2c(-c3nc4cc(C(=O)N[C@H]5CNCC[C@@H]5F)c(F)cc4n3CCOC3CC3)cc3ccc1nc32` [Example 600, 1-[2-(cyclopropoxy)ethyl]-6-fluoro-~{N}-[(3~{S},4~ {S})-4-fluoro-3-piperidyl]-2-[(2~{R},5~{R},7~{R})-2-methyl-4-oxo-3,13,19-triazatetracyclo[11.5.2.0^ {5,7}.0^{16,20}]icosa-1(19),14,16(20),17-tetraen-14-yl]benzimidazole-5-carboxamide], the IC50 worked out at 46 nM.

Regarding `C[C@H]1NC(=O)[C@@H]2C[C@H]2CCCCCn2c(-c3nc4cc(C(=O)N[C@H]5CNCC[C@@H]5F)c(F)cc4n3CCO)cc3ccc1nc32` [Example 601, 6-fluoro-~{N}-[(3~{S},4~ {S})-4-fluoro-3-piperidyl]-1-(2-hydroxyethyl)-2-[(2~{R},5~{R},7~{R})-2-methyl-4-oxo-3,13,19-triazatetracyclo[11.5.2.0^ {5,7}.0^{16,20}]icosa-1(19),14,16(20),17-tetraen-14-yl]benzimidazole-5-carboxamide], the concentration for half-maximal inhibition (IC50) came out at 45 nM.

In the case of `C[C@H]1NC(=O)C(C)(C)CCCCCCn2c(-c3nc4cc(C(=O)N[C@H]5CNCC[C@@H]5F)c(F)cc4n3C3C[C@@H]3F)cc3ccc1nc32` (stereo partly drawn) [Example 602, (1~{R})-6-fluoro-1-[(2~{S})-2-fluorocyclopropyl]-~{N}-[(3~{S},4~{S})-4-fluoro-3-piperidyl]-2-[(11~{R})-8,8,11-trimethyl-9-oxo-1,10,19-triazatricyclo [10.5.2.0^{15,18}]nonadeca-12,14,16,18-tetraen-17-yl]benzimidazole-5-carboxamide], the IC50 worked out at 97 nM.

As to `C[C@H]1NC(=O)C2(CCCCCCn3c(-c4nc5cc(C(=O)N[C@H]6CNCC[C@@H]6F)c(F)cc5n4C4CC4)cc4ccc1nc43)COC2` [Example 603, 1-cyclopropyl-6-fluoro-~ {N}-[(3~{S},4~{S})-4-fluoro-3-piperidyl]-2-[(11~{R})-11-methyl-9-oxo-spiro[1,10,19-triazatricyclo [10.5.2.0^{15,18}]nonadeca-12,14,16,18-tetraene-8,3′-oxetane]-17-yl] benzimidazole-5-carboxamide], the IC50 was found to be 44 nM.

For the molecule `COc1cc(C(=O)N2C[C@H]3CC[C@@H]2[C@@H]3N)cc2nc(-c3cc4ccc5nc4n3CCCCCc3nccnc3C(=O)N[C@@H]5C)n(C)c12` [Example 604, (2~{R})-17-[5-[(1~{R},4~ {R},7~{R})-7-amino-2-azabicyclo[2.2.1]heptane-2-carbonyl]-7-methoxy-1-methyl-benzimidazol-2-yl]-2-methyl-3,6,9,16,22-pentazatetracyclo[14.5.2.0^ {5,10}.0^{19,23}]tricosa-1(21),5(10),6,8,17,19,22-heptaen-4-one], the 50% inhibitory concentration (IC50) is 86 nM.

In the case of `COc1cc(C(=O)N2CC[C@@H](OC)[C@@H](N)C2)cc2nc(-c3cc4ccc5nc4n3CCCCCCc3nccnc3C(=O)N[C@@H]5C)n(C)c12` [Example 606, (2~{R})-18-[5-[(3~{S},4~ {R})-3-amino-4-methoxy-piperidine-1-carbonyl]-7-methoxy-1-methyl-benzimidazol-2-yl]-2-methyl-3,6,9,17,23-pentazatetracyclo[15.5.2.0^ {5,10}.0^{20,24}]tetracosa-1(23),5(10),6,8,18,20(24), 21-heptaen-4-one], the half-inhibitory concentration (IC50) was found to be 129 nM.

As for `COC1CC1n1c(-c2cc3ccc4nc3n2CCCCC[C@@H]2C[C@H]2C(=O)N[C@@H]4C)nc2cc(C(=O)N[C@H]3CNCC[C@@H]3F)c(F)cc21` (stereo partly drawn) [Example 607, 6-fluoro-~{N}-[(3~{S),4~ {S})-4-fluoro-3-piperidyl]-1-(2-methoxycyclopropyl)-2-[(2~{R},5~{R},7~{R})-2-methyl-4-oxo-3,13,19-triazatetracyclo[11.5.2.0^ {5,7}.0^{16,20}]icosa-1(18),14,16,19-tetraen-14-yl]benzimidazole-5-carboxamide], the half-maximal inhibitory concentration (IC50) was 51 nM.

For the molecule `COc1cc(C(=O)N2CC[C@@H](OC)[C@@H](N)C2)cc2nc(-c3cc4ccc5nc4n3CC(F)(F)CCCCC(C)(C)C(=O)N[C@@H]5C)n(C)c12` [Example 608, (11~{R})-17-[5-[(3~{S}, 4~{R})-3-amino-4-methoxy-piperidine-1-carbonyl]-7-methoxy-1-methyl-benzimidazol-2-yl]-3,3-difluoro-8,8,11-trimethyl-1,10,19-triazatricyclo[10.5.2.0^ {15,18}]nonadeca-12,14,16,18-tetraen-9-one], the IC50 was determined as 115 nM.

Regarding `COc1cc(C(=O)N2CC[C@@H](OC(F)F)[C@@H](N)C2)cc2nc(-c3cc4ccc5nc4n3CC(F)(F)CCCCC(C)(C)C(=O)N[C@@H]5C)n(C)c12` [Example 609, (11~{R})-17-[5-[(3~{S}, 4~{R})-3-amino-4-(difluoromethoxy)piperidine-1-carbonyl]-7-methoxy-1-methyl-benzimidazol-2-yl]-3,3-difluoro-8,8,11-trimethyl-1,10,19-triazatricyclo[10.5.2.0^ {15,18}]nonadeca-12,14,16,18-tetraen-9-one], the IC50 is 172 nM.
